Measurements taken from ChEMBL document CHEMBL5550161, “Discovery of novel small molecules targeting the USP21/JAK2/STAT3 axis for the treatment of triple-negative breast cancer” (Eur J Med Chem, 2024).

Assays:
MCF7 = experiment: Anti-proliferative activity against human MCF7 cells assessed as cell growth inhibition incubated for 72 hrs by MTT assay; type: functional, cell-based; details: MCF7, 72 h
MDA-MB-231 = experiment: Anti-proliferative activity against human MDA-MB-231 cells assessed as cell growth inhibition incubated for 72 hrs by MTT assay; type: functional, cell-based; details: MDA-MB-231, 72 h
Hs-578T = experiment: Anti-proliferative activity against human Hs-578T cells assessed as cell growth inhibition incubated for 72 hrs by MTT assay; type: functional, cell-based
HCC1806 = experiment: Anti-proliferative activity against human HCC1806 cells assessed as cell growth inhibition incubated for 72 hrs by MTT assay; type: functional, cell-based; details: HCC1806, 72 h
[1] = molecular target: Tyrosine-protein kinase JAK2 (Homo sapiens, UniProt O60674); experiment: Inhibition of JAK2 (unknown origin)
Sequence of Tyrosine-protein kinase JAK2 (O60674 whole entry): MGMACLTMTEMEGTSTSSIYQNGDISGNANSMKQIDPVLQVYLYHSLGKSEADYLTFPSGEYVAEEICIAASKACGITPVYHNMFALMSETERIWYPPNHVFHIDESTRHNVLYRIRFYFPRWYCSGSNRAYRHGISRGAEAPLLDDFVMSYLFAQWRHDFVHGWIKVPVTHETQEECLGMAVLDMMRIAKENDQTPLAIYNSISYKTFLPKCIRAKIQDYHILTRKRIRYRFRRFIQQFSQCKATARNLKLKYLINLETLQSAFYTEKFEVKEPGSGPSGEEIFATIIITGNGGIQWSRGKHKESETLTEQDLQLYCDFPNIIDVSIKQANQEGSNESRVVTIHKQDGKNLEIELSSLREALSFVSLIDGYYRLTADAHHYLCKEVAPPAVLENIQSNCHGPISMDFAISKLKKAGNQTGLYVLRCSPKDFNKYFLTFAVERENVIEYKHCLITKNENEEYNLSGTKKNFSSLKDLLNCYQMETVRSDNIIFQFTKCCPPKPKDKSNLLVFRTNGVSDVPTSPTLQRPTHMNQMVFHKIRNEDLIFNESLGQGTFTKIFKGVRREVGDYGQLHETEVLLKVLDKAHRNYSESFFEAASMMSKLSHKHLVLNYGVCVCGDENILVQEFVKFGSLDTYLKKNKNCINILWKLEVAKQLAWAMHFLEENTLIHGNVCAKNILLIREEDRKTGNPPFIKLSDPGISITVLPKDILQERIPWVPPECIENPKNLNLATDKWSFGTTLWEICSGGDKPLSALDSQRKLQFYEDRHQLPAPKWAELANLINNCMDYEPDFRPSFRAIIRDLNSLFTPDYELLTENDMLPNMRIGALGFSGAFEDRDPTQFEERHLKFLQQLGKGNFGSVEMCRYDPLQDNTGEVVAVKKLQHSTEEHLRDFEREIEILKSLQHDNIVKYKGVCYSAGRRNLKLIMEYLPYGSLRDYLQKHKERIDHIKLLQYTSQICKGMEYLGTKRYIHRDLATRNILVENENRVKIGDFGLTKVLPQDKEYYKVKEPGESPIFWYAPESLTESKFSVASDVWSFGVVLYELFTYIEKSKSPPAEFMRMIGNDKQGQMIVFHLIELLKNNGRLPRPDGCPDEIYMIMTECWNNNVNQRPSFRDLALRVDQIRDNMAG

| IC50 (MCF7) [µM] | IC50 (MDA-MB-231) [µM] | IC50 (HCC1806) [µM] | IC50 [1] [µM] | SMILES | IC50 (Hs-578T) [µM] |
| --- | --- | --- | --- | --- | --- |
| 12.2 | 3.08 | 8.46 |  | COc1cc(Nc2cc(F)ccc2C(=O)NCCc2c[nH]c3cc(Cl)ccc23)cc(OC)c1OC | 57.7 |
| 3.1 | 2.14 | 1.84 |  | COc1cc(Nc2cc(F)ccc2C(=O)NCCc2c[nH]c3cc(Br)ccc23)cc(OC)c1OC | 22.1 |
| > 100 | > 100 | > 100 |  | COc1cc(Nc2ccc(Br)cc2C(=O)NCCc2c[nH]c3ccccc23)cc(OC)c1OC | > 100 |
| > 100 | 58.2 | > 100 |  | COc1cc(Br)c2c(CCNC(=O)c3ccc(F)cc3Nc3cc(OC)c(OC)c(OC)c3)c[nH]c2c1 | > 100 |
| 0.97 | 0.53 | 0.47 |  | COc1cc(Nc2cc(F)ccc2C(=O)NCCc2c[nH]c3cccc(F)c23)cc(OC)c1OC | 1.86 |
| 4.37 | 3.55 | 2.16 |  | COc1cc(Nc2cc(F)ccc2C(=O)NCCc2c[nH]c3cccc(Br)c23)cc(OC)c1OC | 7.97 |
| > 100 | > 100 | 12.5 |  | COc1cc(Nc2ccc(F)cc2C(=O)NCCc2c[nH]c3ccccc23)cc(OC)c1OC | 55.8 |
| > 100 | > 100 | > 100 |  | COc1cc(Nc2cccc(OC)c2C(=O)NCCc2c[nH]c3ccccc23)cc(OC)c1OC | > 100 |
| 8.77 | 2.79 | 7.81 |  | COc1cc(Nc2cc(F)ccc2C(=O)NCCc2c[nH]c3ccc(C)cc23)cc(OC)c1OC | 55.5 |
| > 100 | 2.12 | 15.1 |  | COc1cc(C)c2[nH]cc(CCNC(=O)c3ccc(F)cc3Nc3cc(OC)c(OC)c(OC)c3)c2c1 | 19.8 |
| 1.86 | 0.68 | 0.92 |  | COc1cc(Nc2cc(F)ccc2C(=O)NCCc2c[nH]c3ccc(F)c(F)c23)cc(OC)c1OC | 1.32 |
| > 100 | > 100 | > 100 |  | COc1cc(Nc2cccc(C)c2C(=O)NCCc2c[nH]c3ccccc23)cc(OC)c1OC | > 100 |
| 3.56 | 2.44 | 1.94 |  | COc1cc(Nc2cc(F)ccc2C(=O)NCCc2c[nH]c3c(Br)cccc23)cc(OC)c1OC | 13.1 |
| 0.53 | 0.37 | 0.4 |  | COc1cc(Nc2cc(F)ccc2C(=O)NCCc2c[nH]c3c(F)cccc23)cc(OC)c1OC | 0.76 |
| > 100 | 82.1 | 29.9 |  | COc1ccc(Nc2cc(OC)c(OC)c(OC)c2)c(C(=O)NCCc2c[nH]c3ccccc23)c1 | > 100 |
| 1.65 | 1.09 | 2.82 |  | COc1cc(Nc2cc(F)ccc2C(=O)NCCc2c[nH]c3c(Cl)cccc23)cc(OC)c1OC | 1.57 |
| 8.98 | 4.03 | 10.5 |  | COc1cc(Nc2cc(F)ccc2C(=O)NCCc2c[nH]c3c(C(F)(F)F)cccc23)cc(OC)c1OC | 19.4 |
| 41.5 | 95.1 | > 100 |  | COc1cc(Nc2cccc(Cl)c2C(=O)NCCc2c[nH]c3ccccc23)cc(OC)c1OC | > 100 |
| 23 | 1.47 | 14.2 |  | COc1cc(Nc2cc(F)ccc2C(=O)NCCc2c[nH]c3cc(F)cc(F)c23)cc(OC)c1OC | 26.4 |
| 43.3 | 82.7 | > 100 |  | COc1cc(Nc2ccc(C(F)(F)F)cc2C(=O)NCCc2c[nH]c3ccccc23)cc(OC)c1OC | > 100 |
| > 100 | 41.8 | 8.3 |  | COc1cc(Nc2cc(F)c(F)cc2C(=O)NCCc2c[nH]c3ccccc23)cc(OC)c1OC | 4.38 |
| 50.6 | 1.68 | 20.2 |  | COc1cc(Nc2cc(F)ccc2C(=O)NCCc2c[nH]c3cc(F)c(F)cc23)cc(OC)c1OC | 27.3 |
| > 100 | > 100 | > 100 |  | COc1cc(Nc2c(F)cc(F)cc2C(=O)NCCc2c[nH]c3ccccc23)cc(OC)c1OC | > 100 |
| 67 | > 100 | > 100 |  | COc1cc(Nc2cccc(C(F)(F)F)c2C(=O)NCCc2c[nH]c3ccccc23)cc(OC)c1OC | > 100 |
| > 100 | 93.7 | 15 |  | COc1cc(Nc2cc(C)c(F)cc2C(=O)NCCc2c[nH]c3ccccc23)cc(OC)c1OC | 47.8 |
| 78 | 85.3 | 90 |  | COc1cc(Nc2c(C(=O)NCCc3c[nH]c4ccccc34)ccc(F)c2F)cc(OC)c1OC | > 100 |
| 40.4 | 46.7 | 1.75 |  | COc1ccc2c(CCNC(=O)c3ccc(F)cc3Nc3cc(OC)c(OC)c(OC)c3)c[nH]c2c1 | > 100 |

| IC50 (MCF7) [µM] | IC50 (MDA-MB-231) [µM] | IC50 (HCC1806) [µM] | IC50 [1] [µM] | SMILES | IC50 (Hs-578T) [µM] |
| --- | --- | --- | --- | --- | --- |
| 29.4 | 50.4 | 70.7 |  | COc1cc(Nc2cc(F)cc(C)c2C(=O)NCCc2c[nH]c3ccccc23)cc(OC)c1OC | > 100 |
| > 100 | 31.3 | > 100 |  | COc1cc(Nc2c(C(=O)NCCc3c[nH]c4ccccc34)cccc2[N+](=O)[O-])cc(OC)c1OC | > 100 |
| 8.75 | 2.2 | 11.3 |  | COc1cc(Nc2cc(F)ccc2C(=O)NCCc2c[nH]c3ccc(Cl)cc23)cc(OC)c1OC | 41.3 |
| > 100 | > 100 | > 100 |  | COc1cc(Nc2ccc(Cl)cc2C(=O)NCCc2c[nH]c3ccccc23)cc(OC)c1OC | > 100 |
| 23.6 | 4.66 | 18 |  | COc1ccc2[nH]cc(CCNC(=O)c3ccc(F)cc3Nc3cc(OC)c(OC)c(OC)c3)c2c1 | > 100 |
| > 100 | > 100 | > 100 |  | COc1cc(Nc2c(F)cccc2C(=O)NCCc2c[nH]c3ccccc23)cc(OC)c1OC | > 100 |
| > 100 | 1.66 | 3.14 |  | COc1cc(Nc2cc(F)cc(F)c2C(=O)NCCc2c[nH]c3ccccc23)cc(OC)c1OC | 1.03 |
| 2.7 | 2.9 | 2.39 |  | COc1cc(Nc2cc(F)ccc2C(=O)NCCc2c[nH]c3cccc(C)c23)cc(OC)c1OC | 3.44 |
| 5.09 | 2.65 | 8.43 |  | COc1cc(Nc2cc(F)ccc2C(=O)NCCc2c[nH]c3cc(F)ccc23)cc(OC)c1OC | 89.1 |
| 8.65 | 2.94 | 3.46 |  | COc1cc(Nc2cc(F)ccc2C(=O)NCCc2c[nH]c3ccc(Br)cc23)cc(OC)c1OC | 51.5 |
| 1.38 | 0.83 | 2.4 |  | COc1cc(Nc2cc(F)ccc2C(=O)NCCc2c[nH]c3ccc(F)cc23)cc(OC)c1OC | 1.37 |
| > 100 | > 100 | > 100 |  | COc1cc(Nc2c(C)cccc2C(=O)NCCc2c[nH]c3ccccc23)cc(OC)c1OC | > 100 |
| 3.28 | 3.75 | 4.33 |  | COc1cc(Nc2cc(Br)ccc2C(=O)NCCc2c[nH]c3ccccc23)cc(OC)c1OC | > 100 |
| 65.8 | 94 | 91.5 |  | COc1cc2[nH]cc(CCNC(=O)c3ccc(F)cc3Nc3cc(OC)c(OC)c(OC)c3)c2cc1OC | > 100 |
| 20.6 | 2.96 | 18.2 |  | COc1cc(Nc2cc(F)ccc2C(=O)NCCc2c[nH]c3cccc(OC)c23)cc(OC)c1OC | 34.7 |
| 2.69 | 2.6 | 1.88 |  | COc1cc(Nc2cc(Cl)ccc2C(=O)NCCc2c[nH]c3ccccc23)cc(OC)c1OC | 13.1 |
| > 100 | 99.7 | 2.41 | > 10 | COc1cc(Nc2ccccc2C(=O)NCCc2c[nH]c3ccccc23)cc(OC)c1OC | 2.18 |
| 3.26 | 1.99 | 1.82 |  | COc1cc(Nc2cc(F)ccc2C(=O)NCCc2c[nH]c3cccc(Cl)c23)cc(OC)c1OC | 3.02 |
| 58.6 | 22.4 | 52.2 |  | COc1cc(Nc2cc(C(F)(F)F)ccc2C(=O)NCCc2c[nH]c3ccccc23)cc(OC)c1OC | 84.3 |
| > 100 | > 100 | 26.5 |  | COc1cc(Nc2cc(C)ccc2C(=O)NCCc2c[nH]c3ccccc23)cc(OC)c1OC | > 100 |
| > 100 | 24.3 | 3.25 |  | COc1cc(Nc2cccc(F)c2C(=O)NCCc2c[nH]c3ccccc23)cc(OC)c1OC | 24.5 |
| 74 | 11.9 | 34.5 |  | COc1cc(Nc2cc(F)ccc2C(=O)NCCc2c[nH]c3cc(C)ccc23)cc(OC)c1OC | > 100 |
| 2.12 | 1.97 | 3.35 |  | COc1cc(Nc2cc(F)ccc2C(=O)NCCc2c[nH]c3c(C)cccc23)cc(OC)c1OC | 2.1 |
| 1.44 | 1.03 | 2.4 |  | COc1cc(Nc2cc(F)ccc2C(=O)NCCc2c[nH]c3ccccc23)cc(OC)c1OC | 1.46 |
| 11 | 38.6 | 20.2 |  | COc1cc(Nc2cc(F)c(C)cc2C(=O)NCCc2c[nH]c3ccccc23)cc(OC)c1OC | > 100 |
| > 100 | 20.9 | 2.57 |  | COc1cc(Nc2cc(F)ccc2C(=O)NCCc2c[nH]c3c(OC)cccc23)cc(OC)c1OC | 2.86 |
